Measurements reported in US11402382B2, “Diagnostic and therapeutic methods for cancer” (Genentech, Inc., priority 2017, dated 2022).

Columns and labels:
[1] = tested on: previously untreated metastatic renal cell carcinoma (mRCC); assay: IMmotion150: PFS and ORR in PD-L1 IHC and gene expression signature (Teff, Angio, Myeloid) subgroups; format: in vivo, human; conditions: for PFS HR (95% CI) vs Sun: unstratified
Procedure: PD-L1 status on tumor-infiltrating immune cells (IC) was assessed in the phase II IMmotion150 study by immunohistochemistry (IHC) using the anti-human PD-L1 rabbit monoclonal antibody, SP142, and scored using an identical IHC scoring criteria (IC1/2/3=≥1% of tumor-infiltrating lymphocytes are PD-L1-positive; IC2/3=≥5% of tumor-infiltrating lymphocytes are PD-L1-positive) (n=297). PD-L1 status can be assessed as described in International Patent Application Publication Nos. WO 2016/183326 and WO 2016/196298. Mutation evaluations by whole exome sequencing (WES) and gene expression analyses by RNA-Seq (n=263) were also performed. For the gene expression analyses, gene expression levels were evaluated for T effector and IFNγ response (Teff) genes (CD8A, IFNG, PRF1, EOMES, and PD-L1), as well as for angiogenesis-related (Ang) genes (VEGFA, KDR, ESM1, PECAM1, ANGPTL4, and CD34), and myeloid inflammation-related (Myeloid) genes (IL6, CXCL1, CXCL2, CXCL3, CXCL8, and PTGS2). The Teff genes at low expression levels (i.e., below the median expression levels of the evaluated Teff genes; “Teff low”) and high expression levels (i.e., at or above the median expression levels of the evaluated Teff genes; “Teff high”) were evaluated in relation to progress-free survival (PFS) per RECIST v.1.1 via Independent Review Facility (IRF) assessment. The Ang genes at low expression levels (i.e., below the median expression levels of the evaluated Ang genes; “Ang low”) and high expression levels (i.e., at or above the median expression levels of the evaluated Ang genes; “Ang high”) were also evaluated in relation to PFS per RECIST v.1.1 via IRF assessment. The Myeloid genes at low expression levels (i.e., below the median expression levels of the evaluated Myeloid genes; “Myeloid low”) and high expression levels (i.e., at or above the median expression levels of the evaluated Myeloid genes; “Myeloid high”) were also evaluated in relation to PFS per RECIST v.1.1 via IRF assessment. To determine the median expression levels, first a Z-score was calculated for the normalized expression of all of the genes in a group. The median level of all the Z-scores across the dataset was used as a reference level to identify biomarker high versus biomarker low subgroups.
Tumor specimens from patients acquired <12 months prior to study treatment were required for enrollment in the study. Tissue was prospectively tested for PD-L1 expression on IC by a central laboratory using the SP142 IHC assay (VENTANA, Tucson, Ariz.). IC staining was defined as follows: any discernible PD-L1 staining of any intensity in IC covering <1% or absent, between ≥1% and <5%, between ≥5% and <10%, or ≥10% of tumor area.
Kaplan-Meier methodology was used to estimate the median PFS for each treatment arm, and Kaplan-Meier curves were produced. The primary analysis was triggered when 140 INV-PFS events occurred among patients treated with atezolizumab+bevacizumab and with sunitinib or among patients treated with atezolizumab alone and with sunitinib, whichever occurred later. […] The stratification factors included prior nephrectomy, tumor PD-L1 status, and MSKCC score and were determined based on data from the electronic case report form; if such data were missing, data collected by the IxRS at the time of randomization were used. Tumor specimens were prospectively tested for PD-L1 expression on ICs by a central laboratory using the SP142 IHC assay (VENTANA, Tucson, Ariz.). IC staining was defined as follows: any discernible PD-L1 staining of any intensity in IC covering <1% or absent (ICO), between ≥1% and <5% (IC1), between ≥5% and <10% (IC2), or ≥10% (IC3) of tumor area occupied by tumor cells, associated intratumoral, and contiguous peri-tumoral desmoplastic stroma.
Whole transcriptome profiles were generated for 263 patients using TRUSEQ® RNA Access technology (ILLUMINA®). RNAseq reads were first aligned to ribosomal RNA sequences to remove ribosomal reads. […]

[2] = in vivo
Procedure: Study treatment consisted of atezolizumab 1200 mg fixed intravenous dose +bevacizumab 15 mg/kg every three weeks, atezolizumab 1200 mg fixed intravenous dose every three weeks, or sunitinib 50 mg/day orally for four weeks followed by two weeks of rest. On disease progression (as assessed by the investigator per RECIST v1.1), patients randomized to atezolizumab monotherapy or sunitinib had the option to cross over and receive the atezolizumab+bevacizumab combination in some regions (option was not available in Europe). In the absence of unacceptable toxicity, treatment with the combination continued until evidence of progressive disease. Where permitted, patients in the atezolizumab-containing arms could continue to be treated beyond disease progression per RECIST v1.1 until lack of clinical benefit; those in non-European nations could cross over to atezolizumab+bevacizumab therapy at any time after disease progression per RECIST v1.1, provided all eligibility criteria were met.

[3] = Teff^HighMyeloid^High vs Teff^HighMyeloid^Low
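Wherever Colitis is given: Open-label multicenter randomized phase 2 trial with three treatment arms, safety set restricted to patients who actually received study drug.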
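Wherever Decreased blood cortisol/adrenal insufficiency is given: Open-label multicenter randomized phase 2 trial with three treatment arms, safety set restricted to patients who actually received study drug.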
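Wherever Pneumonitis is given: Open-label multicenter randomized phase 2 trial with three treatment arms, safety set restricted to patients who actually received study drug.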
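Wherever TSH decreased/hypothyroidism is given: Open-label multicenter randomized phase 2 trial with three treatment arms, safety set restricted to patients who actually received study drug.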

Molecule: CCN(CC)CCNC(=O)c1c(C)[nH]c(/C=C2\C(=O)Nc3ccc(F)cc32)c1C [Sunitinib, N-[2-(Diethylamino)ethyl]-5-[(Z)-(5-fluoro-2-oxo-1,2-dihydro-3H-indol-3-ylidene)methyl]-2,4-dimethyl-1H-pyrrole-3-carboxamide]
- ORR ([1]; Angio^High subgroup): 45%
- PFS HR (95% CI), within arm analysis ([1]; Angio^High vs Angio^Low): 0.31
- ORR ([1]; Angio^Low subgroup): 10%
- PFS HR (95% CI), within arm analysis ([1]; Myeloid^High vs Myeloid^Low): 0.82
- PFS HR (95% CI), within arm analysis ([1]; Teff^High vs Teff^Low): 1.31
- PFS HR (95% CI), within arm analysis [1, 3]: 1.10

Molecule: Atezo: anti-PD-L1 antibody atezolizumab (CAS Registry Number: 1422185-06-5), Genentech, also known as MPDL3280A
- PFS HR (95% CI) vs Sunitinib ([1]; Ang high (Angio^High) subgroup): 1.46
- PFS HR (95% CI) vs Sunitinib ([1]; Ang low (Angio^Low) subgroup): 0.75
- PFS HR (95% CI), within arm analysis ([1]; Angio^High vs Angio^Low): 0.74
- PFS HR (95% CI) vs Sunitinib ([1]; Myeloid^High subgroup): 2.03
- PFS HR (95% CI), within arm analysis ([1]; Myeloid^High vs Myeloid^Low): 2.98
- PFS HR (95% CI) vs Sunitinib ([1]; Myeloid^Low subgroup): 0.53
- PFS HR (95% CI) vs Sun ([1]; PD-L1 IHC IC1/2/3): 0.97
- PFS HR (95% CI) vs Sun ([1]; PD-L1 IHC IC2/3): 0.54
- PFS HR (95% CI) vs Sunitinib ([1]; Teff high subgroup (at or above median)): 0.85
- PFS HR (95% CI) vs Sunitinib ([1]; Teff low subgroup (below median)): 1.33
- PFS HR (95% CI) vs Sunitinib ([1]; Teff^High Myeloid^High subgroup): 1.81
- PFS HR (95% CI) vs Sunitinib ([1]; Teff^High Myeloid^Low subgroup): 0.47
- PFS HR (95% CI), within arm analysis ([1]; Teff^High vs Teff^Low): 0.83
- PFS HR (95% CI), within arm analysis [1, 3]: 3.82
- Colitis [2]: 0 n
- Decreased blood cortisol/adrenal insufficiency [2]: 0 n
- Pneumonitis [2]: 0 n
- TSH decreased/hypothyroidism [2]: 0 n
- TSH increased/hyperthyroidism [2]: 0 n
- treatment-related AE leading to discontinuation of treatment: demyelination [2]: 1%
- treatment-related AE leading to discontinuation of treatment: nephritis [2]: 1%
- treatment-related AE leading to discontinuation of treatment: pancreatitis [2]: 1%
